Biological target: T1, Recombinant human GR (Homo sapiens, UniProt P04150)
T1 construct: purchased Invitrogen P2816
T1 sequence (P04150 1-777): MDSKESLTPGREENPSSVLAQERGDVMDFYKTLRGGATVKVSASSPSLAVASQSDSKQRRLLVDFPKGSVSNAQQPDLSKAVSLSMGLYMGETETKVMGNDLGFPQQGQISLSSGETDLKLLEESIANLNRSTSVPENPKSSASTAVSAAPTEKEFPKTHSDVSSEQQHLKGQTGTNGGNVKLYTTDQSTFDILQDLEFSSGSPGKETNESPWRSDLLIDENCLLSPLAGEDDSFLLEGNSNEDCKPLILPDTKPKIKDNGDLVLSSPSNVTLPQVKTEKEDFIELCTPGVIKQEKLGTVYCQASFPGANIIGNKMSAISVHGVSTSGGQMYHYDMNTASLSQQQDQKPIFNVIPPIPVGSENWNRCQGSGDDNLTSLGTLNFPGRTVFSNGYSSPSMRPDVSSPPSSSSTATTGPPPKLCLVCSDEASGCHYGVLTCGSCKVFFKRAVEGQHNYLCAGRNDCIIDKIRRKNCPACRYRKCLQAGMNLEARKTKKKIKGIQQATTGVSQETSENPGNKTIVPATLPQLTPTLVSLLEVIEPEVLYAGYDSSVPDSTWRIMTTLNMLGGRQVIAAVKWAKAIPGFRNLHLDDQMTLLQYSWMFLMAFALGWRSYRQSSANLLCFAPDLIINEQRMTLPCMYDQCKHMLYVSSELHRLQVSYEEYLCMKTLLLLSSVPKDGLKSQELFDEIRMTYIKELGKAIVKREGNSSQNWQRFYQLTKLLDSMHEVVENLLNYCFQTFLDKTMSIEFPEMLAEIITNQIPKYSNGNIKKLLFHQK
Assay: GR competitor assay by fluorescence polarization (binding activity to glucocorticoid receptor)
Settings: 20 μM test compound solution, 10 μL per well plus 5 μL 4×GS1 and 5 μL 4×GR; 2 to 4 hours at room temperature; ratio of 100% or more is indicated by 100%
Description: 1. Evaluation Test for Binding Activity to Glucocorticoid Receptor (hereinafter referred to as “GR”)
In order to evaluate a binding activity to GR, a receptor competitor assay was carried out by a fluorescence polarization method. In the assay, a GR competitor assay kit (manufactured by Invitrogen, cat No. P2816) was used, and a procedure was carried out according to the protocol attached to the kit. Hereinafter, the specific method will be described.
(Preparation of Reagents)
GR screening buffer: A buffer containing 10 mM potassium phosphate (pH 7.4), 20 mM sodium molybdate (Na2MoO4), 0.1 mM ethylene diamine tetraacetic acid (EDTA), 5 mM dithiothreitol (DTT), 0.1 mM stabilizing peptide and 2% dimethylsulfoxide was prepared.
4×GS1 solution: Fluormone™ GS1, which is a fluorescent glucocorticoid ligand, was diluted with GR screening buffer, whereby a 4 nM solution was prepared.
4×GR solution: Recombinant human GR was diluted with GR screening buffer, whereby a 16 nM solution was prepared.
(Preparation of Test Compound Solution)
After a test compound was dissolved in dimethylsulfoxide, it was diluted with GR screening buffer, whereby a 20 μM test compound solution was prepared.
(Test Method and Measurement Method)
1) The test compound solution was added in an amount of 10 μL into each well of a 384-well plate, and then, 4×GS1 solution and 4×GR solution were added in an amount of 5 μL into each well, respectively.
2) The plate was incubated in a dark place at room temperature for 2 to 4 hours.
3) By using a multimode plate reader, Analyst™ HT (manufactured by LJL Biosystems), fluorescence polarization of each well was measured. As the blank, a well containing GR screening buffer in place of the test compound and 4×GS1 solution was used.
4) The same procedure as that in the above 1) to 3) was carried out except that GR screening buffer was used in place of the test compound solution, and the obtained result was taken as the negative control.
5) The same procedure as that in the above 1) to 3) was carried out except that 2 mM dexamethasone was used in place of the test compound solution, and the obtained result was taken as the positive control.
(Calculation Equation of GR Binding Ratio)
A GR binding ratio (%) was calculated from the following equation. GR binding ratio(%)=100×[1−(fluorescence polarization of test compound solution−fluorescence polarization of positive control solution)/(fluorescence polarization of negative control solution−fluorescence polarization of positive control solution)] (Test Results and Discussion)

| inhibition at 10 µM | Structure (SMILES) |
| --- | --- |
| 91% | COc1cc(OS(C)(=O)=O)ccc1-c1ccc2c(c1COc1cc(F)ccc1C)N(C)C(=O)C(C)(C)N2 [Compound 1-1, 8-(5-Fluoro-2-methylphenoxymethyl)-7-(2-methoxy-4-methylsulfonyloxyphenyl)-1,3,3-trimethyl-3,4-dihydro-1H-quinoxalin-2-one] |
| 85% | COc1cc(OS(=O)(=O)c2ccccc2)ccc1-c1ccc2c(c1COc1cc(F)ccc1C)N(C)C(=O)C(C)(C)N2 [Compound 1-2] |
| 99% | COc1cc(OS(=O)(=O)C(F)(F)F)ccc1-c1ccc2c(c1COc1cc(F)ccc1C)N(C)C(=O)C(C)(C)N2 [Compound 1-3] |
| 99% | CCCS(=O)(=O)Oc1ccc(-c2ccc3c(c2COc2cc(F)ccc2C)N(C)C(=O)C(C)(C)N3)c(OC)c1 [Compound 1-4] |
| 95% | COc1cc(OS(=O)(=O)c2ccco2)ccc1-c1ccc2c(c1COc1cc(F)ccc1C)N(C)C(=O)C(C)(C)N2 [Compound 1-5] |
| 100% | COc1cc(OS(C)(=O)=O)ccc1-c1ccc2c(c1COC(=O)c1ccc(C)s1)N(C)C(=O)C(C)(C)N2 [Compound 1-6] |
| 86% | COc1cc(OS(=O)(=O)c2ccccc2)ccc1-c1ccc2c(c1COC(=O)c1ccc(C)s1)N(C)C(=O)C(C)(C)N2 [Compound 1-7] |
| 85% | COc1cc(OS(=O)(=O)c2ccccc2Cl)ccc1-c1ccc2c(c1COc1cc(F)ccc1C)N(C)C(=O)C(C)(C)N2 [Compound 1-8] |
| 100% | COc1cc(OS(=O)(=O)Cc2ccccc2)ccc1-c1ccc2c(c1COc1cc(F)ccc1C)N(C)C(=O)C(C)(C)N2 [Compound 1-9] |
| 100% | COC(=O)CCS(=O)(=O)Oc1ccc(-c2ccc3c(c2COc2cc(F)ccc2C)N(C)C(=O)C(C)(C)N3)c(OC)c1 [Compound 1-10] |
| 83% | COc1cc(OS(=O)(=O)c2ccccc2C)ccc1-c1ccc2c(c1COc1cc(F)ccc1C)N(C)C(=O)C(C)(C)N2 [Compound 1-11] |
| 100% | CCCCS(=O)(=O)Oc1ccc(-c2ccc3c(c2COc2cc(F)ccc2C)N(C)C(=O)C(C)(C)N3)c(OC)c1 [Compound 1-12] |
| 100% | CCS(=O)(=O)Oc1ccc(-c2ccc3c(c2COc2cc(F)ccc2C)N(C)C(=O)C(C)(C)N3)c(OC)c1 [Compound 1-13] |
| 100% | COc1cc(OS(=O)(=O)C(C)C)ccc1-c1ccc2c(c1COc1cc(F)ccc1C)N(C)C(=O)C(C)(C)N2 [Compound 1-14] |
| 82% | COc1cccc(S(=O)(=O)Oc2ccc(-c3ccc4c(c3COc3cc(F)ccc3C)N(C)C(=O)C(C)(C)N4)c(OC)c2)c1 [Compound 1-15] |
| 68% | COc1cc(OS(=O)(=O)c2cccc(Cl)c2)ccc1-c1ccc2c(c1COc1cc(F)ccc1C)N(C)C(=O)C(C)(C)N2 [Compound 1-16] |
| 65% | COc1cc(OS(=O)(=O)c2ccc(Cl)cc2)ccc1-c1ccc2c(c1COc1cc(F)ccc1C)N(C)C(=O)C(C)(C)N2 [Compound 1-17] |
| 88% | COc1cc(OS(=O)(=O)Cc2cccc(Cl)c2)ccc1-c1ccc2c(c1COc1cc(F)ccc1C)N(C)C(=O)C(C)(C)N2 [Compound 1-18] |
| 91% | COc1cc(OS(=O)(=O)Cc2ccc(C)cc2)ccc1-c1ccc2c(c1COc1cc(F)ccc1C)N(C)C(=O)C(C)(C)N2 [Compound 1-19] |
| 87% | COc1cc(OS(=O)(=O)Cc2ccc(Cl)cc2)ccc1-c1ccc2c(c1COc1cc(F)ccc1C)N(C)C(=O)C(C)(C)N2 [Compound 1-20] |
| 92% | COc1cc(OS(=O)(=O)CC(C)C)ccc1-c1ccc2c(c1COc1cc(F)ccc1C)N(C)C(=O)C(C)(C)N2 [Compound 1-21] |

| inhibition at 10 µM | Structure (SMILES) |
| --- | --- |
| 91% | COc1cc(OS(=O)(=O)CCC(F)(F)F)ccc1-c1ccc2c(c1COc1cc(F)ccc1C)N(C)C(=O)C(C)(C)N2 [Compound 1-22] |
| 94% | COc1cc(OS(=O)(=O)C2CC2)ccc1-c1ccc2c(c1COc1cc(F)ccc1C)N(C)C(=O)C(C)(C)N2 [Compound 1-23] |
| 92% | COc1cc(NS(C)(=O)=O)ccc1-c1ccc2c(c1COc1cc(F)ccc1C)N(C)C(=O)C(C)(C)N2 [Compound 1-25] |
| 95% | COc1cc(OS(=O)(=O)c2ccccc2F)ccc1-c1ccc2c(c1COc1cc(F)ccc1C)N(C)C(=O)C(C)(C)N2 [Compound 1-26] |
| 99% | COc1cc(OS(=O)(=O)Cc2ccccc2Cl)ccc1-c1ccc2c(c1COc1cc(F)ccc1C)N(C)C(=O)C(C)(C)N2 [Compound 1-27] |
| 91% | COc1cc(OS(=O)(=O)Cc2ccccc2C)ccc1-c1ccc2c(c1COc1cc(F)ccc1C)N(C)C(=O)C(C)(C)N2 [Compound 1-28] |
| 95% | COc1cc(OS(=O)(=O)C2CCCC2)ccc1-c1ccc2c(c1COc1cc(F)ccc1C)N(C)C(=O)C(C)(C)N2 [Compound 1-29] |
| 92% | COc1cc(OS(=O)(=O)C2CCCCC2)ccc1-c1ccc2c(c1COc1cc(F)ccc1C)N(C)C(=O)C(C)(C)N2 [Compound 1-30] |
| 90% | COc1cc(OS(=O)(=O)Cc2cccc(C)c2)ccc1-c1ccc2c(c1COc1cc(F)ccc1C)N(C)C(=O)C(C)(C)N2 [Compound 1-31] |
| 96% | COc1cc(OS(=O)(=O)C2CC2)ccc1-c1ccc2c(c1COC(=O)c1ccc(C)s1)N(C)C(=O)C(C)(C)N2 [Compound 1-32] |
| 95% | COc1cc(OS(=O)(=O)CCC(F)(F)F)ccc1-c1ccc2c(c1COC(=O)c1ccc(C)s1)N(C)C(=O)C(C)(C)N2 [Compound 1-33] |
| 100% | COc1cc(OS(=O)(=O)CC(C)C)ccc1-c1ccc2c(c1COC(=O)c1ccc(C)s1)N(C)C(=O)C(C)(C)N2 [Compound 1-34] |
| 95% | CCCS(=O)(=O)Oc1ccc(-c2ccc3c(c2COC(=O)c2ccc(C)s2)N(C)C(=O)C(C)(C)N3)c(OC)c1 [Compound 1-35] |
| 99% | COc1cc(OS(=O)(=O)C(C)C)ccc1-c1ccc2c(c1COC(=O)c1ccc(C)s1)N(C)C(=O)C(C)(C)N2 [Compound 1-36] |
| 94% | COc1cc(OS(=O)(=O)C2CCCC2)ccc1-c1ccc2c(c1COC(=O)c1ccc(C)s1)N(C)C(=O)C(C)(C)N2 [Compound 1-37] |
| 100% | COc1ccc([N+](=O)[O-])cc1OCc1c(-c2ccc(OS(C)(=O)=O)cc2OC)ccc2c1N(C)C(=O)C(C)(C)N2 [Compound 1-38] |
| 100% | COc1ccc([N+](=O)[O-])cc1OCc1c(-c2ccc(OS(=O)(=O)CCC(F)(F)F)cc2OC)ccc2c1N(C)C(=O)C(C)(C)N2 [Compound 1-39] |
| 100% | COc1ccc([N+](=O)[O-])cc1OCc1c(-c2ccc(OS(=O)(=O)CC(C)C)cc2OC)ccc2c1N(C)C(=O)C(C)(C)N2 [Compound 1-40] |
| 100% | COc1ccc([N+](=O)[O-])cc1OCc1c(-c2ccc(OS(=O)(=O)C3CCCC3)cc2OC)ccc2c1N(C)C(=O)C(C)(C)N2 [Compound 1-41] |
| 100% | COc1ccc([N+](=O)[O-])cc1OCc1c(-c2ccc(OS(=O)(=O)C(C)C)cc2OC)ccc2c1N(C)C(=O)C(C)(C)N2 [Compound 1-42] |
| 100% | COc1ccc([N+](=O)[O-])cc1OCc1c(-c2ccc(OS(=O)(=O)C3CC3)cc2OC)ccc2c1N(C)C(=O)C(C)(C)N2 [Compound 1-43] |

Source: US8569493B2 (Santen Pharmaceutical Co., Ltd., priority 2007, dated 2013)
